# Measured values reported in patent US20200345701A1, “USE OF STATINS IN OVERCOMING RESISTANCE TO BETA-LACTAM ANTIBIOTICS IN BACTERIAL SPECIES SYNTHETIZING ISOPRENOIDS USING THE MEVALONATE SYNTHETIC PATHWAY” (CONSEJO SUPERIOR DE INVESTIGACIONES CIENTIFICAS (CSIC), priority 2017, published 2020).
# “Also recorded” adds a separate entry of the source.
# Columns and labels:
# MRSA ΔfloA mutant [1] = test: β-lactam antibiotic sensitivity of MRSA ΔfloA mutant versus WT; assay type: cell-based, Staphylococcus aureus; conditions: antibiotic concentrations that typically inhibit MSSA growth
# [2] = test system: Staphylococcus aureus MRSA strain USA300; test: In vitro MRSA cell growth inhibition (bacterial count CFU/ml), statin or ZA with oxacillin; assay type: cell-based; conditions: for MRSA growth (CFU/ml) with oxacillin plus compound: combination with the β-lactam antibiotic oxacillin
# ΔMAR flotillin variant [3] = assay type: binding, Staphylococcus aureus
# ΔEA4 flotillin variant [4] = assay type: binding, Staphylococcus aureus
# ΔPHB flotillin variant [5] = assay type: binding, Staphylococcus aureus
# FloA (WT flotillin) = FloA (WT flotillin) (Staphylococcus aureus, UniProt Q99TS3); assay type: binding; conditions: purified WT FloA; sucrose gradient, FloA immunodetection in lipid fraction
# ΔMAR flotillin variant [6] = assay type: binding, Staphylococcus aureus; remark: listed apart in the source
# ΔEA4 flotillin variant [7] = assay type: binding, Staphylococcus aureus; remark: listed apart in the source
# ΔPHB flotillin variant [8] = assay type: binding, Staphylococcus aureus; remark: listed apart in the source
# S. aureus = test: Growth curves of S. aureus cultures at different ZA concentrations; assay type: cell-based, Staphylococcus aureus; conditions: ZA 50 μM; TSB medium, 36 h, 37° C.
# FloA membrane foci = FloA membrane foci count by fluorescence microscopy; assay type: cell-based, Staphylococcus aureus; conditions: ZA 50 μM
# Procedure: Cells from liquid cultures were washed in PBS and resuspended in 0.5 ml 4% paraformaldehyde (6 min, room temperature). Samples were washed twice and resuspended in 0.5 ml PBS. Images were acquired on a Leica DMI6000B microscope equipped with a CRT6000 illumination system, with a HCX PL APO oil immersion objective (100×1.47) and a color camera DFC630FX. Leica Application Suite Advanced Fluorescence
# Software was used for linear image processing. The YFP signal was detected (excitation filter 489 nm, emission filter 508 nm). Excitation times were 567 msec. Transmitted light images were taken with 55 msec excitation time.
# PBP2a = assay type: cell-based; conditions: ZA-treated MRSA cells; bands at ~80 kDa
# MRSA = assay type: cell-based, Staphylococcus aureus; conditions: β-lactam antibiotics; treated versus untreated MRSA
# FloA and PBP2a = FloA and PBP2a oligomerization by sucrose gradient centrifugation; conditions: membrane fraction of ZA-treated versus untreated cells
# Procedure: FloA oligomerization in S. aureus WT and Δcrt mutant and PBP2a oligomerization were analyzed in sucrose gradient assays. S. aureus cultures were harvested and cells crosslinked with 0.5 mM DSP (dithiobis(succinimidyl propionate)) before cell lysis and membrane fraction purification. Purified membrane fractions (200 μg) solubilized with 0.5% DDM were layered on a 5-40% linear sucrose gradient generated by a Biocomp gradient maker, then centrifuged (Beckman; 100,000 g, 16 h, 4° C.). Fractions (1 ml) were collected from the bottom of the gradient and proteins associated with each fraction were precipitated with 10% trichloroacetic acid (TCA). Protein fractions were dried and resuspended in PBS prior to immunoblot analyses.
# MRSA ΔfloA mutant [9] = conditions: mice infected with ΔfloA mutant, 3×10^7 CFU; oxacillin 200 mg/kg/day; three days post-infection
# Procedure: (§1) Female BALB/c mice (8-10 weeks old, 16-19 g weight) were purchased (Charles River Laboratories), Mice were housed in polypropylene cages in standardized lighting conditions and had ad libitum access to food and water.
# (§2) The S. aureus strains were cultured on BHI medium (18 h, 37° C.). Cells were collected, washed three times with PBS and diluted to OD600 nm=0.05. Viable cell counts were determined by plating inoculum dilutions on TSB agar plates. For survival experiments, cohorts of 10 mice were infected with 150 μl of S. aureus cultures (3×10^7 cells) via intravenous injection. Each strain was used to infect one mouse cohort. Doses of oxacillin (200 mg/kg) alone or in combination with ZA (50 mg/Kg or 20 mg/Kg) were injected intraperitoneally (i.p.) daily for 1-4 days. […] The first dose was administered 30 min after the bacterial inoculation. Infections were allowed to progress until severe infection signs occurred or to a 3-day endpoint. Mice were sacrificed when they met the following criteria: 1) loss of at least 20% body weight, 2) loss of at least 15% body weight and ruffled fur, 3) loss of at least 10% body weight and hunched posture, or 4) 4 days post-infection.
# MRSA WT strain = test: Murine infection model, survival, WT strain; conditions: mice infected with WT, 3×10^7 CFU; oxacillin 200 mg/kg/day; three days post-infection
# Procedure: as §1, §2
# Chain of FloA (WT flotillin) (Q99TS3 whole entry, looked up): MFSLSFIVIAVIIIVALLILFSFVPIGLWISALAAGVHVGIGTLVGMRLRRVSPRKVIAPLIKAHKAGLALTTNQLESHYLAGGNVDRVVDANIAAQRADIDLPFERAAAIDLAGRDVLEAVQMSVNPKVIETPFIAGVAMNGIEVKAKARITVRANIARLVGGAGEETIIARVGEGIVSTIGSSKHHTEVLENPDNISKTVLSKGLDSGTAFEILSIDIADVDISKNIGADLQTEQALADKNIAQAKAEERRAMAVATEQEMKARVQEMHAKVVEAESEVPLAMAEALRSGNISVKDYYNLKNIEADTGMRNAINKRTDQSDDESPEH
smiles,measurement,setting,value
CC1(C)S[C@@H]2[C@H](NC(=O)[C@H](N)c3ccccc3)C(=O)N2[C@H]1C(=O)O [ampicillin],growth / resistance of ΔfloA compared to WT in presence of β-lactam antibiotic,MRSA ΔfloA mutant [1],comparable resistance
Cc1onc(-c2c(Cl)cccc2Cl)c1C(=O)N[C@@H]1C(=O)N2[C@@H]1SC(C)(C)[C@@H]2C(=O)O [dicloxacillin],growth / resistance of ΔfloA compared to WT in presence of β-lactam antibiotic,MRSA ΔfloA mutant [1],severe growth inhibition
CC(C)c1c(C(=O)Nc2ccccc2)c(-c2ccccc2)c(-c2ccc(F)cc2)n1CC[C@@H](O)C[C@@H](O)CC(=O)O [atorvastatin],MRSA growth (CFU/ml) with oxacillin plus compound,[2],did not alter the MRSA antibiotic-resistant phenotype
CCOc1ccc2ccccc2c1C(=O)N[C@@H]1C(=O)N2[C@@H]1SC(C)(C)[C@@H]2C(=O)O [nafcillin],growth / resistance of ΔfloA compared to WT in presence of β-lactam antibiotic,MRSA ΔfloA mutant [1],severe growth inhibition
COc1cccc(OC)c1C(=O)N[C@@H]1C(=O)N2[C@@H]1SC(C)(C)[C@@H]2C(=O)O [methicillin],growth / resistance of ΔfloA compared to WT in presence of β-lactam antibiotic,MRSA ΔfloA mutant [1],severe growth inhibition
CCC(C)CCCCCCCCCCC(=O)OC[C@H]1O[C@@H](OC(=O)/C(C)=C/C=C/C(C)=C/C=C/C(C)=C/C=C/C=C(C)/C=C/C=C(\C)CCC=C(C)C)[C@H](O)[C@@H](O)[C@@H]1O (stereo partly drawn) [staphyloxanthin],Kd,ΔMAR flotillin variant [3],12 nM
same,Kd,ΔEA4 flotillin variant [4],9.43 nM
same,Kd,ΔPHB flotillin variant [5],943 nM
same,lipid-protein interaction in flotation assay,FloA (WT flotillin),interacted strongly
same,lipid-protein interaction in flotation assay,ΔMAR flotillin variant [6],interacted strongly
same,lipid-protein interaction in flotation assay,ΔEA4 flotillin variant [7],interacted strongly
same,lipid-protein interaction in flotation assay,ΔPHB flotillin variant [8],showed no tendency to interact
"C=C(CC[C@]12O[C@H](C(=O)O)[C@@](O)(C(=O)O)[C@](C(=O)O)(O1)[C@H](OC(=O)/C=C/[C@@H](C)C[C@@H](C)CC)[C@H]2O)[C@@H](OC(C)=O)[C@H](C)Cc1ccccc1 [ZA, Zaragozic acid]",S. aureus growth,S. aureus,no growth defects; also recorded: did not affect
same,effect of increasing compound concentration on antibiotic effect of oxacillin,"[2]; MRSA cultures, combination with oxacillin",potentiated the antibiotic effect of oxacillin
same,MRSA growth (CFU/ml) with oxacillin plus compound,[2],inhibited
same,MRSA growth (CFU/ml) in the presence of compound alone,[2]; without oxacillin,unaltered
same,number of FloA membrane foci,FloA membrane foci,reduced
same,PBP2a oligomerization (BN-PAGE),PBP2a,deficient PBP2a oligomerization
same,antibiotic sensitivity profile of treated MRSA cultures,MRSA,resembled those of the ΔfloA mutant
same,oligomerization of flotillin and PBP2a (sucrose gradient),FloA and PBP2a,reduced oligomerization of flotillin and PBP2a
Cc1onc(-c2c(F)cccc2Cl)c1C(=O)N[C@@H]1C(=O)N2[C@@H]1SC(C)(C)[C@@H]2C(=O)O [flucoxacillin],growth / resistance of ΔfloA compared to WT in presence of β-lactam antibiotic,MRSA ΔfloA mutant [1],severe growth inhibition
Cc1onc(-c2ccccc2)c1C(=O)N[C@@H]1C(=O)N2[C@@H]1SC(C)(C)[C@@H]2C(=O)O [oxacillin],growth / resistance of ΔfloA compared to WT in presence of β-lactam antibiotic,MRSA ΔfloA mutant [1],severe growth inhibition
same,survival rate,MRSA ΔfloA mutant [9],70%
same,survival rate,MRSA WT strain,10%
